Tests used:
MDA-MB231 = experiment: Inhibition of growth of MDA-MB-231 tumor cells by free drugs (14C thymidine uptake); assay type: cell-based; details: Homo sapiens, MDA-MB231, 96 hrs, read-out: cellular inhibition proliferation (IC50 in nM) MDA-MB231
Method: (§1) Inhibition of Growth of MDA-MB-231 and HCT116 Tumor Cells
(§2) Cells in exponential phase of growth were trypsinized and resuspended in their respective culture medium (DMEM/F12 Gibco #21331; 10% SVF Gibco #10500-056; […] Glutamine Gibco #25030 for MDA-MB231 & MDA-A1 cells; DMEM (Gibco #11960) 10%, SVF Gibco #10500-056; […] Glutamine Gibco #25030 for HCT116 cells). Cell suspension was distributed in 96-well Cytostar culture plates (GE Healthcare Europe, #RPNQ0163) in complete serum-containing media at a density of 5000 cells/well (MDA-MB231 HCT116). After coating for 4 hrs, serial dilutions were added to triplicate wells. Cells were cultured at 37° C./5% CO2 in the presence of the drug for 3 days. On the 4th day, 10 μl of a solution of 14C thymidine (0.1 μCi/well (Perkin Elmer #NEC56825000) was added to each well. The uptake of 14C thymidine was measured 96 hrs after the experiment has been started with a microbeta radioactive counter (Perkin Elmer). Cell-free reagent blanks were subtracted from the test well readings and the data were plotted as surviving fractions obtained by dividing readings of the conjugate-treated cells by the average of readings from control wells of vehicle-treated cells.

HCT116 = experiment: Inhibition of growth of HCT116 tumor cells by free drugs (14C thymidine uptake); assay type: cell-based; details: Homo sapiens, HCT-116; HCT116, 96 hrs; read-out: cellular inhibition proliferation (IC50 in nM) HCT116
Method: as §1, §2

Row | SMILES | IC50 (MDA-MB231) [nM] | IC50 (HCT116) [nM]
1 | COC(=O)CCOCCOCCOCCOCCNC(=O)CSC(C)(C)CCC(=O)N(C)[C@@H](C)C(=O)O[C@H]1CC(=O)N(C)c2cc(cc(OC)c2Cl)C/C(C)=C/C=C/[C@@H](OC)[C@@]2(O)C[C@H](OC(=O)N2)[C@@H](C)[C@@H]2O[C@@]12C [Example 10, L-DM4-AcNH-PEG4-COOMe] | 15.3 | 13
2 | COC(=O)CCOCCOCCOCCOCCN(C)C(=O)CSC(C)(C)CCC(=O)N(C)[C@@H](C)C(=O)O[C@H]1CC(=O)N(C)c2cc(cc(OC)c2Cl)C/C(C)=C/C=C/[C@@H](OC)[C@@]2(O)C[C@H](OC(=O)N2)[C@@H](C)[C@@H]2O[C@@]12C [Example 11, L-DM4-AcNMe-PEG4-COOMe] | 28.3 | 18.5
3 | COC(=O)CCOCCOCCOCCOC/C=C/CSC(C)(C)CCC(=O)N(C)[C@@H](C)C(=O)O[C@H]1CC(=O)N(C)c2cc(cc(OC)c2Cl)C/C(C)=C/C=C/[C@@H](OC)[C@@]2(O)C[C@H](OC(=O)N2)[C@@H](C)[C@@H]2O[C@@]12C [Example 12, L-DM4-Allyl-PEG4-COOMe] | 1.5 | 0.8
4 | COC(=O)CCOCCOCCOCCOCCNC(=O)CCN1C(=O)CC(SC(C)(C)CCC(=O)N(C)[C@@H](C)C(=O)O[C@H]2CC(=O)N(C)c3cc(cc(OC)c3Cl)C/C(C)=C/C=C/[C@@H](OC)[C@@]3(O)C[C@H](OC(=O)N3)[C@@H](C)[C@@H]3O[C@@]23C)C1=O (stereo partly drawn) [Example 14, L-DM4-Mal-PEG4-COOMe] | 31.7 | 33.6

Source: patent publication US20120276124A1, “MAYTANSINOIDS AND THE USE OF SAID MAYTANSINOIDS TO PREPARE CONJUGATES WITH AN ANTIBODY” (priority 2009, published 2012)
